Key:
[1] = normal human; cited from earlier work
clinical = conditions: human, in vivo, 15 ug/kg
From the text: Primary endpoints include length/height Z-score at Week 52 and evaluation of any adverse events. Secondary endpoints include AGV at Week 52, Bilateral X-rays of lower extremities, Lumbar spine X-rays, DXA of whole body and spine, AUC0-∞, AUC0-t, Cmax, Tmax, t1/2, CL/F, VZ/F, Hip monitoring clinical assessments, Bayley-III, WeeFIM, and ITQOL scores, CBCL scores, Anti-vosoritide total antibody (TAb), Anti-vosoritide antibody cross-reactivity with endogenous CNP, ANP, and BNP (TAb), Anti-vosoritide neutralizing antibody (NAb), CXM and bone-specific alkaline phosphatase, Collagen type II (CTX-II), Cyclic guanosine monophosphate (cGMP), anthropometric measurements, upper to lower body segment ratio, upper arm length to lower arm (forearm) length ratio, upper leg length (thigh) to knee to heel length ratio, upper leg length (thigh) to tibial length ratio, and arm span to standing height ratio.
The pharmacokinetics of vosoritide in the different populations of patients was also analyzed for any change in PK (Table 4). PD information (plasma cGMP and serum CXM) in 4 sentinel subjects and 33 randomized subjects (aged≥24 to <60 months) receiving 30 μg/kg vosoritide was available.

[2] = in vivo

| Compound | in vivo (plasma) half-life [1] [min] | CL/F (clinical; Mean CL/F, range over visits) [mL/min/kg] | Vd/F (clinical; Mean Vz/F, range over visits) [L/kg] | Tmax (clinical; Median Tmax, range over visits) [min] | Cmax (clinical; mean Cmax, range over visits) [ng/mL] | half-life (clinical; mean t1/2, range over visits) [min] | Tmax (clinical; sc, tmax, median [minimum, maximum]) [min] | Adverse event of grade two or higher related to the study drug (CTCAE v5.0) [2] |
| --- | --- | --- | --- | --- | --- | --- | --- | --- |
| CNP: mature 22-amino acid C-type natriuretic peptide (wild type CNP-22) | 2.6 | – | – | – | – | – | – | – |
| CC[C@H](C)[C@@H]1NC(=O)[C@H](CCCNC(=N)N)NC(=O)[C@H](CC(=O)O)NC(=O)[C@H](CC(C)C)NC(=O)[C@H](CCCCN)NC(=O)[C@H](CC(C)C)NC(=O)CNC(=O)[C@H](Cc2ccccc2)NC(=O)[C@@H](NC(=O)CNC(=O)[C@H](CCCCN)NC(=O)[C@H](CO)NC(=O)[C@H](CC(C)C)NC(=O)CNC(=O)[C@H](CCCCN)NC(=O)[C@H](CCCCN)NC(=O)[C@H](CC(N)=O)NC(=O)[C@H](C)NC(=O)CNC(=O)[C@H](CCCCN)NC(=O)[C@H](Cc2ccc(O)cc2)NC(=O)[C@H](CCCCN)NC(=O)[C@H](CCCNC(=N)N)NC(=O)[C@H](C)NC(=O)[C@H](CC(N)=O)NC(=O)[C@@H]2CCCN2C(=O)[C@H](Cc2c[nH]cn2)NC(=O)[C@H](CCC(=O)O)NC(=O)[C@H](CCC(N)=O)NC(=O)CNC(=O)[C@@H]2CCCN2)CSSC[C@@H](C(=O)O)NC(=O)CNC(=O)[C@H](CC(C)C)NC(=O)CNC(=O)[C@H](CO)NC(=O)[C@H](CCSC)NC(=O)[C@H](CO)NC(=O)CNC1=O [vosoritide] | – | 82.1 to 150 | 2.65 to 3.8 | 14 to 15.5 | 3.81 to 6.86 | 15.2 to 29.3 | 14 | No patient |
